Reference: patent publication US10757941B2, “Microbiocidal oxadiazole derivatives” (SYNGENTA PARTICIPATIONS AG, priority 2016, dated 2020)

Experiments:
[1] = test system: Puccinia recondita f. Sp. Tritici; assay: Fungicidal activity against Puccinia recondita f. sp. tritici / wheat / leaf disc preventative (brown rust); format: in vivo; conditions: foliar, 200 ppm in the applied formulation, wheat leaf segments cv. Kanzler, preventative (inoculated 1 day after application), assessed 7 to 9 days after application, compared to untreated, read-out: disease control
Summary of the method: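 Wheat cv. Kanzler leaf segments on agar sprayed with formulated compound diluted in water; spore inoculation 1 day after application. Incubated at 19° C., 75% rh, 12 h light/12 h dark; percent disease control versus untreated scored 7 to 9 days after application.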

[2] = test system: Puccinia recondita f. Sp. Tritici; assay: Fungicidal activity against Puccinia recondita f. sp. tritici / wheat / leaf disc curative (brown rust); format: in vivo; conditions: foliar, 200 ppm in the applied formulation, wheat leaf segments cv. Kanzler, curative (applied 1 day after inoculation), assessed 6 to 8 days after application, compared to untreated, read-out: disease control
Description: Leaf disks or leaf segments of various plant species are cut from plants grown in a greenhouse. The cut leaf disks or segments are placed in multiwell plates (24-well format) onto water agar. The leaf disks are sprayed with a test solution before (preventative) or after (curative) inoculation. Compounds to be tested are prepared as DMSO solutions (max. 10 mg/ml) which are diluted to the appropriate concentration with 0.025% Tween20 just before spraying. The inoculated leaf disks or segments are incubated under defined conditions (temperature, relative humidity, light, etc.) according to the respective test system. A single evaluation of disease level is carried out 3 to 14 days after inoculation, depending on the pathosystem. Percent disease control relative to the untreated check leaf disks or segments is then calculated. Example 2: Fungicidal Activity Against Puccinia recondita f. Sp. Tritici/Wheat/Leaf Disc Curative (Brown Rust) Wheat leaf segments cv. Kanzler are placed on agar in multiwell plates (24-well format). The leaf segments are then inoculated with a spore suspension of the fungus. Plates were stored in darkness at 19° C. and 75% relative humidity. The formulated test compound diluted in water was applied 1 day after inoculation. The leaf segments were incubated at 19° C. and 75% relative humidity under a light regime of 12 hours light/12 hours darkness in a climate cabinet and the activity of a compound was assessed as percent disease control compared to untreated when an appropriate level of disease damage appears in untreated check leaf segments (6 to 8 days after application). The following compounds at 200 ppm in the applied formulation give at least 80% disease control in this test when compared to untreated control leaf disks under the same conditions, which show extensive disease development.

Phakopsora pachyrhizi = assay: Fungicidal activity against Phakopsora pachyrhizi / soybean / leaf disc preventative (Asian soybean rust); format: in vivo; conditions: foliar, 200 ppm in the applied formulation, soybean leaf disks, preventative (inoculated one day after application), assessed 12 to 14 days after application, compared to untreated, read-out: disease control
Summary of the method: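 Preventative test: soybean leaf discs on water agar sprayed with compound diluted in water, inoculated with spore suspension on lower surface one day later. Incubated 24-36 h dark at 20° C., 75% rh, then 12 h light/day; percent disease control versus untreated assessed 12 to 14 days after application.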

[3] = test system: Glomerella lagenarium (Colletotrichum lagenarium); assay: Fungicidal activity against Glomerella lagenarium (Colletotrichum lagenarium) liquid culture / cucumber / preventative (anthracnose); format: cell-based; conditions: Colletotrichum orbiculare; 20 ppm in the applied formulation; liquid culture in PDB, 24° C.; inhibition of growth measured photometrically 3 to 4 days after application; compared to untreated; read-out: disease control
Summary of the method: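 Conidia of C. lagenarium from cryogenic storage mixed into potato dextrose broth and added to test compound (DMSO solution) in microtiter plates; incubated at 24° C. Growth inhibition read photometrically 3 to 4 days after application, as percent activity versus untreated check.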

Uromyces viciae-fabael = assay: Fungicidal activity against Uromyces viciae-fabae / field bean / leaf disc preventative (faba-bean rust); format: in vivo; conditions: foliar, 288 h, 100 ppm in the applied formulation, field bean leaf discs, preventative (inoculated two hours after application), assessed 12 days after application, compared to untreated, read-out: disease control
Summary of the method: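 Field bean leaf discs on water agar treated with compound in acetone plus spreader, then inoculated 2 h later by spraying U. viciae-fabae spores on the lower surface. Incubation at 22° C, 18 h day, 70% RH; percent disease control versus untreated scored 12 days after application.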

O=C(NC1CCC1)c1ccc(-c2noc(C(F)(F)F)n2)c(F)c1 [Compound 1.39, N-cyclobutyl-3-fluoro-4-[5-(trifluoromethyl)-1,2,4-oxadiazol-3-yl]benzamide]
≥ 80%: pest or weed control at 200 ppm [1] | pest or weed control at 200 ppm [2] | pest or weed control at 200 ppm (Phakopsora pachyrhizi) | inhibition of growth at 20 ppm [3] | pest or weed control at 100 ppm (Uromyces viciae-fabael)

CCOCC1(NC(=O)c2ccc(-c3noc(C(F)(F)F)n3)c(F)c2)CC1 [Compound 1.40, N-[1-(ethoxy-methyl)cyclopropyl]-3-fluoro-4-[5-(trifluoromethyl)-1,2,4-oxadiazol-3-yl]benzamide]
≥ 80%: pest or weed control at 200 ppm [1] | pest or weed control at 200 ppm [2] | pest or weed control at 200 ppm (Phakopsora pachyrhizi) | inhibition of growth at 20 ppm [3] | pest or weed control at 100 ppm (Uromyces viciae-fabael)
